# Values quoted from earlier work in patent US9012467B2, “Compositions for intratumoral administration” (Covidien LP, priority 2009, dated 2015).
# Tested on: mice
# Conditions: acute toxicity
compound,measurement,value
"COC(=O)C1=CO[C@@H](O)[C@@H]2C(CO)=CC[C@H]12 [Genipin, genipin]",LD50 i.v.,382 mg/k
